Measured values as given in article PMC8000724, “Trans-Epithelial Transport, Metabolism, and Biological Activity Assessment of the Multi-Target Lupin Peptide [sequence] (P5) and Its Metabolite [sequence] (P5-Met)” (Nutrients, 2021).

Experiments:
PCSK9 = experiment: Western blot, PCSK9 protein level in HepG2 cells; assay type: cell-based, human; details: HepG2, 50 µM, 24 h, mean ± SD
Protocol: The HepG2 cell line was bought from ATCC (HB-8065, ATCC from LGC Standards, Milan, Italy) and was cultured in DMEM high glucose with stable L-glutamine, supplemented with 10% FBS, 100 U/mL penicillin, 100 µg/mL streptomycin (complete growth medium) with incubation at 37 °C under 5% CO2 atmosphere.
Immunoblotting experiments were performed using optimized protocol. A total of 1.5 × 10^5 HepG2 cells/well (24-well plate) were treated with 50 μM of P5 and P5-met for 24 h. After each treatment, the supernatants were collected and stored at −20°C; cells were scraped in 40 µL ice-cold lysis buffer (RIPA buffer + inhibitor cocktail + 1:100 PMSF + 1:100 Na-orthovanadate + 1:1000 β-mercaptoethanol) and transferred in ice-cold microcentrifuge tubes. […] Total proteins were quantified by the Bradford’s method and 50 μg of total proteins loaded on a pre-cast 7.5% Sodium Dodecyl Sulfate-Polyacrylamide (SDS-PAGE) gel at 130 V for 45 min. […] Target proteins, on milk or BSA blocked membrane, were detected by primary antibodies as follows: anti-SREBP-2, anti-LDLR, anti-HMGCoAR, anti-PCSK9, anti HNF1-α and anti-β-actin. Secondary antibodies conjugated with HRP and a chemiluminescent reagent were used to visualize target proteins and their signal was quantified using the Image Lab Software (Biorad, Hercules, CA, USA). […]

secreted mature PCSK9 = experiment: Quantification of PCSK9 secreted by HepG2 cells through ELISA; assay type: cell-based, human; details: HepG2 supernatants, 50 µM, mean ± SD
Protocol: The supernatants collected from treated HepG2 cells (50.0 μM of P5 and/or P5-met) were centrifuged at 600 × g for 10 min at 4 °C and ELISA assay performed using protocol already optimized. They were recovered and diluted to the ratio 1:10 with DMEM in a new ice-cold tube. PCSK9 was quantified by ELISA (R&D System, Minneapolis, MN, USA). Briefly, the experiments were carried out at 37 °C, following the manufacturer’s instructions. Before starting the assay, human PCSK9 standard curve (20.0, 10.0, 5.0, 2.5, 1.25, and 0.625 ng/mL) was prepared by serial dilutions from a 40 ng/mL stock. 100 µL of the Assay Diluent RD1-9 (provided into the kit) were placed in each well, before adding the standards and the samples (50 µL) and incubating the ELISA plate for 2 h at RT. Subsequently, wells were washed 4 times with the wash buffer, and 200 µL of human PCSK9-conjugate (HRP-labelled anti-PCSK9) was added to each well for 2 h at RT. Following aspiration, wells was washed 4 times with the kit wash buffer. After the last wash, 200 µL of substrate solution were added to the wells and allowed to incubate for 30 min at RT. The reaction was stopped with 50 µL of the stop solution (2 M sulfuric acid) and the absorbance at 450 nm was measured using Synergy H1 microplate (Winooski, VT, USA).

[1] = molecular target: T1, HMGCoAR (catalytic domain) (Homo sapiens, UniProt P04035); experiment: HMGCoAR activity assay; assay type: biochemical; details: 10-500 µM peptide, 37 °C, NADPH absorbance 340 nm at 0 and 10 min
T1 construct: finally the HMGCoAR (catalytic domain) (2 µL); purchased Sigma-Aldrich
T1 sequence (P04035 340-888 limits assumed): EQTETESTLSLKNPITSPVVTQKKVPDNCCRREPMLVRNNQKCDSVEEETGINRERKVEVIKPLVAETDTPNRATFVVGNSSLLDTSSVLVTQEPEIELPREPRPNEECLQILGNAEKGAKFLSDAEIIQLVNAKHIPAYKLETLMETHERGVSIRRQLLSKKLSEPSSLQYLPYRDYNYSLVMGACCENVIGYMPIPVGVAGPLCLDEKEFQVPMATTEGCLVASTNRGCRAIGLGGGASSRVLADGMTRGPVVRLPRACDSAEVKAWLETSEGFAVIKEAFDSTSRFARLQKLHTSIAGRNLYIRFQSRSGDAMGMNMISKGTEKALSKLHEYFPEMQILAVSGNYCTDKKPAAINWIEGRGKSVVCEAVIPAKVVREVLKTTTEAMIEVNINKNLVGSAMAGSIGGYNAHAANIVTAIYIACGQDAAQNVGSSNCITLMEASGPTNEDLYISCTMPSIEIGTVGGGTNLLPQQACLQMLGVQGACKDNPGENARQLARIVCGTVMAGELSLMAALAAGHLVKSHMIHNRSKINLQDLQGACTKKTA
Protocol: The experiments were carried out following the manufacturer instructions and optimized protocol. The assay buffer, NADPH, substrate solution, and HMGCoAR were provided in the HMGCoAR Assay Kit (Sigma Aldrich SRL, Milan, Italy). The experiments were carried out following the manufacturer instructions at 37 °C. In particular, each reaction (200 µL) was prepared adding the reagents in the following order: 1× assay buffer, a 10–500 µM doses of P5 and P5-met or vehicle (C), the NADPH (4 µL), the substrate solution (12 µL), and finally the HMGCoAR (catalytic domain) (2 µL). Subsequently, the samples were mixed and the absorbance at 340 nm read by the microplate reader Synergy H1 (Winooski, VT, USA) at time 0 and 10 min. The HMGCoAR-dependent oxidation of NADPH and the inhibition properties of peptides were measured by absorbance reduction, which is directly proportional to enzyme activity.

H-LPKHSDAD-OH [Peptide P5-met]
Decrease of PCSK9 protein level (PCSK9): 29 ± 8.1%
Decrease of the secretion of mature PCSK9 (secreted mature PCSK9): 22.2 ± 4.9%
IC50 [1]: 175 µM
